{"source": "ChEMBL document CHEMBL1201862", "about": "“PubChem BioAssay data set” (2004)", "assay_in_all_cases": "NCI anticancer screen, dose series, 48 h", "key": {"CCRF-CEM": {"test_system": "CCRF-CEM"}, "A498": {"test_system": "A498"}, "M14": {"test_system": "M14"}, "MOLT-4": {"test_system": "MOLT-4"}, "SK-OV-3": {"test_system": "SK-OV-3"}, "SK-MEL-28": {"test_system": "SK-MEL-28"}, "SF-539": {"test_system": "SF-539"}, "Malme-3M": {"test_system": "Malme-3M"}, "HCT-116": {"test_system": "HCT-116"}, "UACC-257": {"test_system": "UACC-257"}, "UACC-62": {"test_system": "UACC-62"}, "HCC 2998": {"test_system": "HCC 2998"}, "EKVX": {"test_system": "EKVX"}, "MCF7": {"test_system": "MCF7"}, "OVCAR-4": {"test_system": "OVCAR-4"}, "RXF 393": {"test_system": "RXF 393"}, "NCI-H460": {"test_system": "NCI-H460"}, "SF-268": {"test_system": "SF-268"}, "OVCAR-8": {"test_system": "OVCAR-8"}, "OVCAR-3": {"test_system": "OVCAR-3"}, "NCI-H23": {"test_system": "NCI-H23"}, "786-0": {"test_system": "786-0"}, "COLO 205": {"test_system": "COLO 205"}, "NCI/ADR-RES": {"test_system": "NCI/ADR-RES"}, "K562": {"test_system": "K562"}, "HL-60": {"test_system": "HL-60"}, "A549": {"test_system": "A549"}, "Hs-578T": {"test_system": "Hs-578T"}, "SK-MEL-5": {"test_system": "SK-MEL-5"}, "KM12": {"test_system": "KM12"}, "SNB-75": {"test_system": "SNB-75"}, "T47D": {"test_system": "T47D"}, "HT-29": {"test_system": "HT-29"}, "HOP-92": {"test_system": "HOP-92"}, "IGROV-1": {"test_system": "IGROV-1"}, "ACHN": {"test_system": "ACHN"}, "DU-145": {"test_system": "DU-145"}, "HOP-62": {"test_system": "HOP-62"}, "U-251": {"test_system": "U-251"}, "RPMI-8226": {"test_system": "RPMI-8226"}, "NCI-H522": {"test_system": "NCI-H522"}, "MDA-MB-435": {"test_system": "MDA-MB-435"}, "TK-10": {"test_system": "TK-10"}, "SK-MEL-2": {"test_system": "SK-MEL-2"}, "SNB-19": {"test_system": "SNB-19"}, "NCI-H226": {"test_system": "NCI-H226"}, "LOX IMVI": {"test_system": "LOX IMVI"}, "SN12C": {"test_system": "SN12C"}, "UO-31": {"test_system": "UO-31"}, "SW-620": {"test_system": "SW-620"}, "SF-295": {"test_system": "SF-295"}, "HCT-15": {"test_system": "HCT-15"}, "MDA-N": {"test_system": "MDA-N"}, "BT-549": {"test_system": "BT-549"}, "CAKI-1": {"test_system": "CAKI-1"}, "PC-3": {"test_system": "PC-3"}, "SR": {"test_system": "SR"}, "OVCAR-5": {"test_system": "OVCAR-5"}}, "note": "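Values below derive from 48-hour exposures of cells grown in 96-well plates, with endpoints linearly interpolated between the two concentrations bracketing the appropriate inhibition level. GI50 marks 50% less growth.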 Calls of active or inactive are those of the source. No stated cut-off is given here; in the data, active = GI50 up to about 1.1 µM and inactive = higher.", "data": [{"compound": "CCOC(=O)/C(=C\\NCc1ccc2c(c1)OCO2)c1nc2ccccc2[nH]1", "values": [{"measurement": "GI50", "setting": "CCRF-CEM", "value": "42 µM (inactive)"}, {"measurement": "GI50", "setting": "A498", "value": "> 100 µM (inactive)"}, {"measurement": "GI50", "setting": "M14", "value": "47.2 µM (inactive)"}, {"measurement": "GI50", "setting": "MOLT-4", "value": "30.5 µM (inactive)"}, {"measurement": "GI50", "setting": "SK-OV-3", "value": "> 100 µM (inactive)"}, {"measurement": "GI50", "setting": "SK-MEL-28", "value": "60.7 µM (inactive)"}, {"measurement": "GI50", "setting": "SF-539", "value": "35.4 µM (inactive)"}, {"measurement": "GI50", "setting": "Malme-3M", "value": "41.7 µM (inactive)"}, {"measurement": "GI50", "setting": "HCT-116", "value": "39.8 µM (inactive)"}, {"measurement": "GI50", "setting": "UACC-257", "value": "64.6 µM (inactive)"}, {"measurement": "GI50", "setting": "UACC-62", "value": "26.9 µM (inactive)"}, {"measurement": "GI50", "setting": "HCC 2998", "value": "42.7 µM (inactive)"}, {"measurement": "GI50", "setting": "EKVX", "value": "> 100 µM (inactive)"}, {"measurement": "GI50", "setting": "MCF7", "value": "59.8 µM (inactive)"}, {"measurement": "GI50", "setting": "OVCAR-4", "value": "57.3 µM (inactive)"}, {"measurement": "GI50", "setting": "RXF 393", "value": "> 100 µM (inactive)"}, {"measurement": "GI50", "setting": "NCI-H460", "value": "24.9 µM (inactive)"}, {"measurement": "GI50", "setting": "SF-268", "value": "61.4 µM (inactive)"}, {"measurement": "GI50", "setting": "OVCAR-8", "value": "43 µM (inactive)"}, {"measurement": "GI50", "setting": "OVCAR-3", "value": "43 µM (inactive)"}, {"measurement": "GI50", "setting": "NCI-H23", "value": "25.6 µM (inactive)"}, {"measurement": "GI50", "setting": "786-0", "value": "36.9 µM (inactive)"}, {"measurement": "GI50", "setting": "COLO 205", "value": "32.7 µM (inactive)"}, {"measurement": "GI50", "setting": "NCI/ADR-RES", "value": "60.3 µM (inactive)"}, {"measurement": "GI50", "setting": "K562", "value": "52.2 µM (inactive)"}, {"measurement": "GI50", "setting": "HL-60", "value": "48.8 µM (inactive)"}, {"measurement": "GI50", "setting": "A549", "value": "35.4 µM (inactive)"}, {"measurement": "GI50", "setting": "Hs-578T", "value": "56.8 µM (inactive)"}, {"measurement": "GI50", "setting": "SK-MEL-5", "value": "25.8 µM (inactive)"}, {"measurement": "GI50", "setting": "KM12", "value": "42.7 µM (inactive)"}, {"measurement": "GI50", "setting": "SNB-75", "value": "77.3 µM (inactive)"}, {"measurement": "GI50", "setting": "T47D", "value": "35.9 µM (inactive)"}, {"measurement": "GI50", "setting": "HT-29", "value": "24.6 µM (inactive)"}, {"measurement": "GI50", "setting": "HOP-92", "value": "71.9 µM (inactive)"}, {"measurement": "GI50", "setting": "IGROV-1", "value": "40.3 µM (inactive)"}, {"measurement": "GI50", "setting": "ACHN", "value": "38.4 µM (inactive)"}, {"measurement": "GI50", "setting": "DU-145", "value": "> 100 µM (inactive)"}, {"measurement": "GI50", "setting": "HOP-62", "value": "71.3 µM (inactive)"}, {"measurement": "GI50", "setting": "U-251", "value": "82 µM (inactive)"}, {"measurement": "GI50", "setting": "RPMI-8226", "value": "25.5 µM (inactive)"}, {"measurement": "GI50", "setting": "NCI-H522", "value": "28.2 µM (inactive)"}, {"measurement": "GI50", "setting": "MDA-MB-435", "value": "48.6 µM (inactive)"}, {"measurement": "GI50", "setting": "TK-10", "value": "22.8 µM (inactive)"}, {"measurement": "GI50", "setting": "SK-MEL-2", "value": "48.4 µM (inactive)"}, {"measurement": "GI50", "setting": "SNB-19", "value": "46.9 µM (inactive)"}, {"measurement": "GI50", "setting": "NCI-H226", "value": "> 100 µM (inactive)"}, {"measurement": "GI50", "setting": "LOX IMVI", "value": "42.2 µM (inactive)"}, {"measurement": "GI50", "setting": "SN12C", "value": "> 100 µM (inactive)"}, {"measurement": "GI50", "setting": "UO-31", "value": "79.4 µM (inactive)"}, {"measurement": "GI50", "setting": "SW-620", "value": "98.2 µM (inactive)"}, {"measurement": "GI50", "setting": "SF-295", "value": "53.5 µM (inactive)"}, {"measurement": "GI50", "setting": "HCT-15", "value": 44.9, "unit": "µM"}, {"measurement": "GI50", "setting": "MDA-N", "value": "75 µM (inactive)"}, {"measurement": "GI50", "setting": "BT-549", "value": "83.4 µM (inactive)"}, {"measurement": "GI50", "setting": "CAKI-1", "value": "> 100 µM (inactive)"}, {"measurement": "GI50", "setting": "PC-3", "value": "50 µM (inactive)"}, {"measurement": "GI50", "setting": "SR", "value": "48.1 µM (inactive)"}, {"measurement": "GI50", "setting": "OVCAR-5", "value": "94.8 µM (inactive)"}]}]}
